Results: patent publication US7964591B2, “Pyridazine derivatives and their use as therapeutic agents” (Novartis Pharma AG, priority 2003, dated 2011)

What follows are compounds tested against T1, stearoyl-CoA desaturase (SCD) (Mus musculus, UniProt P13516) (assay: Stearoyl-CoA desaturase inhibition using mouse liver microsomes (HTS microsomal assay, IC50 follow-up)). Conditions: % SCD enzyme activity remaining at 10 μM test compound.
T1 sequence (P13516 1-355): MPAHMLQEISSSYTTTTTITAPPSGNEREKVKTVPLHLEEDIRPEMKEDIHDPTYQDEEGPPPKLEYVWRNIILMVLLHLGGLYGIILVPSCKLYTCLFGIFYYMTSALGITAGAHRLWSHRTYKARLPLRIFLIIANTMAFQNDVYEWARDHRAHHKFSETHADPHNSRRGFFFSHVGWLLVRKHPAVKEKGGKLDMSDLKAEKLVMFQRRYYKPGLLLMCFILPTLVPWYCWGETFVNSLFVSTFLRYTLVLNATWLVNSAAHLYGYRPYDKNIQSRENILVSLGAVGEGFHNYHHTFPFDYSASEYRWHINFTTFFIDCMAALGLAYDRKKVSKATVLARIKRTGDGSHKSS
Description: Livers are immediately rinsed with cold 0.9% NaCl solution, weighed and minced with scissors. All procedures are performed at 4° C. unless specified otherwise. Livers are homogenized in a solution (1:3 w/v) containing 0.25 M sucrose, 62 mM potassium phosphate buffer (pH 7.0), 0.15 M KCl, 1.5 mM N-acetyleysteine, 5 mM MgCl2, and 0.1 mM EDTA using 4 strokes of a Potter-Elvehjem tissue homogenizer. The homogenate is centrifuged at 10,400×g for 20 min to eliminate mitochondria and cellular debris. The supernatant is filtered through a 3-layer cheesecloth and centrifuged at 105,000×g for 60 min. The microsomal pellet is gently resuspended in the same homogenization solution with a small glass/teflon homogenizer and stored at −70° C. The absence of mitochondrial contamination is enzymatically assessed. The protein concentration is measured using bovine serum albumin as the standard.
The tubes are vortexed vigorously and after 15 min incubation in a shaking water bath (37° C.), the reactions are stopped and fatty acids are analyzed.
Fatty acids are analyzed as follows: The reaction mixture is saponified with 10% KOH to obtain free fatty acids which are further methylated using BF3 in methanol. […] Fatty acid methyl esters are separated isocratically with acetonitrile/water (95:5 v:v) at a flow rate of 1 mL/min and are identified by comparison with authentic standards.
The compounds are analyzed with an HTS microsomal assay. The activities are defined in terms of % SCD enzyme activity remaining at the selected concentration (e.g., 10 μM) of the test compounds.

| Mouse Microsome 10% remaining @ 10 μM | Compound |
| --- | --- |
| 15% | O=C(NCCc1ccccc1)Nc1ccc(N2CCN(C(=O)c3ccccc3C(F)(F)F)CC2)nn1 |
| 73% | O=C(Nc1ccc(N2CCN(C(=O)c3ccccc3C(F)(F)F)CC2)nn1)Nc1ccccc1F [1-(2-FLUOROPHENYL)-3-{6-[4-(2-TRIFLUOROMETHYLBENZOYL)PIPERAZIN-1-YL]-PYRIDAZIN-3-YL}UREA] |
| 6% | O=C(NCc1ccc(F)cc1)Nc1ccc(N2CCN(C(=O)c3ccccc3C(F)(F)F)CC2)nn1 [1-(4-FLUOROBENZYL)-3-{6-[4-(2-TRIFLUOROMETHYLBENZOYL)PIPERAZIN-1-YL]-PYRIDAZIN-3-YL}UREA] |
| 82% | O=C(Nc1ccc(F)cc1)Nc1ccc(N2CCN(C(=O)c3ccccc3C(F)(F)F)CC2)nn1 [1-(4-FLUOROPHENYL)-3-{6-[4-(2-TRIFLUOROMETHYLBENZOYL)PIPERAZIN-1-YL]-PYRIDAZIN-3-YL}UREA] |
| 8% | O=C(NCc1ccccc1)Nc1ccc(N2CCN(C(=O)c3ccccc3C(F)(F)F)CC2)nn1 [1-BENZYL-3-{6-[4-(2-TRIFLUOROMETHYLBENZOYL)PIPERAZIN-1-YL]PYRIDAZIN-3-YL}UREA] |
| 13% | CCCCNC(=O)Nc1ccc(N2CCN(C(=O)c3ccccc3C(F)(F)F)CC2)nn1 [1-BUTYL-3-{6-[4-(2-TRIFLUOROMETHYLBENZOYL)PIPERAZIN-1-YL]PYRIDAZIN-3-YL}UREA] |
| 6% | CCCCCNC(=O)Nc1ccc(N2CCN(C(=O)c3ccccc3C(F)(F)F)CC2)nn1 [1-PENTYL-3-{6-[4-(2-TRIFLUOROMETHYLBENZOYL)PIPERAZIN-1-YL]PYRIDAZIN-3-YL}UREA] |
| 45% | CC(NC(=O)Nc1ccc(N2CCN(C(=O)c3ccccc3C(F)(F)F)CC2)nn1)c1ccc(F)cc1 (stereo not drawn) [1-[1-(4-Fluorophenyl)ethyl]-3-{6-[4-(2-trifluoromethylbenzoyl)piperazin-1-yl]pyridazin-3-yl}urea] |
| 14% | O=C(NCCCc1ccc(F)cc1)Nc1ccc(N2CCN(C(=O)c3ccccc3C(F)(F)F)CC2)nn1 [1-[3-(4-Fluorophenyl)propyl]-3-{6-[4-(2-trifluoromethylbenzoyl)piperazin-1-yl]pyridazin-3-yl}urea] |
| 18% | CCOC(=O)CCNC(=O)Nc1ccc(N2CCN(C(=O)c3ccccc3C(F)(F)F)CC2)nn1 [3-(3-{6-[4-(2-TRIFLUOROMETHYLBENZOYL)PIPERAZIN-1-YL]-PYRIDAZIN-3-YL}-UREIDO)PROPIONIC ACID ETHYL ESTER] |
| 69% | COC(=O)C(CC(C)C)NC(=O)c1ccc(N2CCN(C(=O)c3ccccc3C(F)(F)F)CC2)nn1 (stereo not drawn) [4-METHYL-2-({6-[4-(2-TRIFLUOROMETHYLBENZOYL)PIPERAZIN-1-YL]-PYRIDAZINE-3-CARBONYL}AMINO)PENTANOIC ACID METHYL ESTER] |
| 22% | O=C(NCCC1CC1)c1ccc(N2CCN(C(=O)C3CCCCC3)CC2)nn1 [6-(4-CYCLOHEXANECARBONYLPIPERAZIN-1-YL)PYRIDAZINE-3-CARBOXYLIC ACID (2-CYCLOPROPYLETHYL)AMIDE] |
| 61% | CC(C)CCNC(=O)c1ccc(N2CCN(C(=O)c3nnn(Cc4ccccc4)c3C(F)(F)F)CC2)nn1 [6-[4-(1-BENZYL-5-TRIFLUOROMETHYL-1H-[1,2,3]TRIAZOLE-4-CARBONYL)-PIPERAZIN-1-YL]PYRIDAZINE-3-CARBOXYLIC ACID (3-METHYLBUTYL)AMIDE] |
| 73% | O=C(NCCC1CC1)c1ccc(N2CCN(C(=O)C3(O)CC3)CC2)nn1 [6-[4-(1-HYDROXYCYCLOPROPANECARBONYL)PIPERAZIN-1-YL]PYRIDAZINE-3-CARBOXYLIC ACID (2-CYCLOPROPYLETHYL)AMIDE] |
| 15% | CC(C)CCNC(=O)c1ccc(N2CCN(C(=O)c3cnn(C)c3C(F)(F)F)CC2)nn1 [6-[4-(1-METHYL-5-TRIFLUOROMETHYL-1H-PYRAZOLE-4-CARBONYL)PIPERAZIN-1-YL]-PYRIDAZINE-3-CARBOXYLIC ACID (3-METHYLBUTYL)AMIDE] |
| 26% | CC(C)CCNC(=O)c1ccc(N2CCN(C(=O)C3(C(F)(F)F)CC3)CC2)nn1 [6-[4-(1-TRIFLUOROMETHYLCYCLOPROPANECARBONYL)PIPERAZIN-1-YL]-PYRIDAZINE-3-CARBOXYLIC ACID (3-METHYLBUTYL)AMIDE] |
| 8% | O=C(NCCC1CC1)c1ccc(N2CCN(Cc3ccc(Cl)cc3Cl)CC2)nn1 [6-[4-(2,4-DICHLOROBENZYL)-PIPERAZIN-1-YL]PYRIDAZINE-3-CARBOXYLIC ACID (2-CYCLOPROPYLETHYL)AMIDE] |
| 6% | O=C(NCCC1CC1)c1ccc(N2CCN(C(=O)c3cc(C(F)(F)F)ccc3C(F)(F)F)CC2)nn1 [6-[4-(2,5-BIS-TRIFLUOROMETHYLBENZOYL)PIPERAZIN-1-YL]PYRIDAZINE-3-CARBOXYLIC ACID (2-CYCLOPROPYLETHYL)AMIDE] |
| 8% | O=C(NCCC1CC1)c1ccc(N2CCN(Cc3cc(Cl)ccc3Cl)CC2)nn1 [6-[4-(2,5-DICHLOROBENZYL)PIPERAZIN-1-YL]PYRIDAZINE-3-CARBOXYLIC ACID (2-CYCLOPROPYLETHYL)AMIDE] |
| 23% | CC(C)CCNC(=O)c1ccc(N2CCN(C(=O)c3ccccc3N)CC2)nn1 [6-[4-(2-AMINOBENZOYL)PIPERAZIN-1-YL]PYRIDAZINE-3-CARBOXYLIC ACID (3-METHYLBUTYL)AMIDE] |
| 11% | O=C(NCCC1CC1)c1ccc(N2CCN(Cc3ccc(F)cc3Cl)CC2)nn1 [6-[4-(2-CHLORO-4-FLUOROBENZYL)PIPERAZIN-1-YL]PYRIDAZINE-3-CARBOXYLIC ACID (2-CYCLOPROPYLETHYL)AMIDE] |
| 36% | CCC(CC)C(=O)N1CCN(c2ccc(C(=O)NCCC3CC3)nn2)CC1 [6-[4-(2-ETHYLBUTYRYL)PIPERAZIN-1-YL]PYRIDAZINE-3-CARBOXYLIC ACID (2-CYCLOPROPYLETHYL)AMIDE] |
| 8% | CC(C)CCNC(=O)c1ccc(N2CCN(C(=O)c3ccccc3[N+](=O)[O-])CC2)nn1 [6-[4-(2-NITROBENZOYL)PIPERAZIN-1-YL]PYRIDAZINE-3-CARBOXYLIC ACID (3-METHYLBUTYL)AMIDE] |
| 49% | O=C(NCC1CC1)c1ccc(N2CCN(C(=O)c3ccccc3C(F)(F)F)CC2)nn1 [6-[4-(2-TRIFLUOROMETHYLBENZOYL)PIPERAZIN-1-YL]PYRIDAZINE-3-CARBOXYLIC ACID CYCLOPROPYLMETHYLAMIDE] |
| 5% | O=C(NCCc1ccc(F)cc1F)c1ccc(N2CCN(C(=O)c3ccccc3C(F)(F)F)CC2)nn1 [6-[4-(2-TRIFLUOROMETHYLBENZOYL)PIPERAZIN-1-YL]PYRIDAZINE-3-CARBOXYLIC ACID [2-(2,4-DIFLUOROPHENYL)ETHYL]AMIDE] |

| Compound | Mouse Microsome 10% remaining @ 10 μM |
| --- | --- |
| CC(C)(C)OC(=O)N1CCN(c2ccc(C(=O)NCCC3CC3)nn2)CC1 [4-[6-(2-CYCLOPROPYLETHYLCARAMOYL)PYRIDAZIN-3-YL]PIPERAZINE-1-CARBOXYLIC ACID T-BUTYL ESTER] | 37% |
| CC(C)CCNC(=O)c1ccc(N2CCN(C(=O)OC(C)(C)C)CC2)nn1 [4-[6-(3-METHYLBUTYLCARAMOYL)PYRIDAZIN-3-YL]PIPERAZINE-1-CARBOXYLIC ACID T-BUTYL ESTER] | 11% |
